The values that follow come from article PMC11571054, “Unveiling the GT114 family: Structural characterization of A075L, a glycosyltransferase from Paramecium bursaria chlorella virus‐1 (PBCV‐1)” (Protein Science : A Publication of the Protein Society, 2024).

Assay [1] deals with T1, A075L (Paramecium bursaria Chlorella virus 1, UniProt Q89410).
T1 construct: recombinant in E. coli BL21 Gold (SeMet in B834); GST tag cut with PreScission protease; GST kept only for mutant D73A
T1 sequence (Q89410 1-280): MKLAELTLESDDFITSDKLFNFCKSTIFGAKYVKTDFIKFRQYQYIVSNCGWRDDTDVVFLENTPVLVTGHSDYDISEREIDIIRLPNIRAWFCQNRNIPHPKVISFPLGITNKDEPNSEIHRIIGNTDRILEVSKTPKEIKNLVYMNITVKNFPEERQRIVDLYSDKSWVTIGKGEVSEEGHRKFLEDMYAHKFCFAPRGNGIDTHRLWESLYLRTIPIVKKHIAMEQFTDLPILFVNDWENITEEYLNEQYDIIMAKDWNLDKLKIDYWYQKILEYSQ
Nature of the assay: ITC. Type of assay: binding.

For assay [2], the target named is T1, A075L. Nature of the assay: STD-NMR. Type of assay: binding. The note with it: 1:40 enzyme-acceptor ratio; 25 °C; binds but is not glycosylated.

For `O=c1ccn([C@@H]2O[C@H](COP(=O)(O)OP(=O)(O)O[C@H]3OC[C@@H](O)[C@H](O)[C@H]3O)[C@@H](O)[C@H]2O)c(=O)[nH]1` [compound 1, UDP‐α‐D‐Xyl], the Kd at A075L [1] was determined as 31 µM. Consider `CCCCCCCCO[C@@H]1O[C@@H](C)[C@@H](O)[C@@H](O)[C@@H]1O[C@H]1O[C@H](CO)[C@H](O)[C@H](O)[C@H]1O` [compound 5, α‐D‐Gal‐(1 → 2)‐α‐L‐Fuc‐Octyl], for which the STD-NMR result on A075L [2] is “despite their lower reactivity, both disaccharides can be accommodated in the binding site”.

As usually defined, the Kd is the free concentration of one partner at which half of the binding sites on the other are occupied at equilibrium, for simple one-to-one binding. A higher Kd goes with weaker binding.
